Experimental data as given in US20260265195A1, “SARM1 MODULATORS, PREPARATIONS, AND USES THEREOF” (SIRONAX LTD, priority 2022, published 2026).
pIC50: −log10 of the molar value.

Target: T1, SARM1 (50-724) (Homo sapiens, UniProt Q6SZW1)
T1 construct: Purified SARM1 (50-724) with a final concentration of 2 nM
T1 sequence (Q6SZW1 50-724): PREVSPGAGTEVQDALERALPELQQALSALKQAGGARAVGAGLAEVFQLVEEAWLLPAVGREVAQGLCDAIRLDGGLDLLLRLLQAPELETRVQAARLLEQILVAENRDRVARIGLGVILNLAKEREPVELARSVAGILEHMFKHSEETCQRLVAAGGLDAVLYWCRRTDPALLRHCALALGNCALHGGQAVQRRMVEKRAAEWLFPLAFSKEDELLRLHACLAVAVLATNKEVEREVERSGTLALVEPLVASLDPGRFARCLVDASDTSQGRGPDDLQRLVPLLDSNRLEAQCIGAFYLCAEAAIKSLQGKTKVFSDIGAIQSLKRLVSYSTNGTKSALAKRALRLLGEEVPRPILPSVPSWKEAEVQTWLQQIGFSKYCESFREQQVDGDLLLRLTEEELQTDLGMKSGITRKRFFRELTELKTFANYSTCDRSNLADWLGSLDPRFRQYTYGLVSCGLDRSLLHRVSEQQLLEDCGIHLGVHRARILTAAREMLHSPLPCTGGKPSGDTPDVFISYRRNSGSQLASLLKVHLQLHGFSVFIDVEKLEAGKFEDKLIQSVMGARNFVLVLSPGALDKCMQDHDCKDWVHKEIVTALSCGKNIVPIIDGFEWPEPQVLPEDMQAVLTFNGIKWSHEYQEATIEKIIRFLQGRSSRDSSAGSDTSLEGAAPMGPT
Assay: SARM1 (50-724) enzymatic assay (NMN-activated NAD+ hydrolysis, LC-MS/MS readout)
Assay type: biochemical
Conditions: purified SARM1 (50-724) 2 nM, 200 μM NMN activator, 100 μM NAD+ substrate, 1 h at room temperature, read-out: IC50 (SARM1 inhibitory activity)
How it was run: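 Purified human SARM1 (50-724), 2 nM final in DPBS, pre-incubated 15 min at RT with compound (1% DMSO), then started with 200 μM NMN activator and 100 μM NAD+. After 1 h at RT, quenched with 70% acetonitrile; analysed by LC-MS/MS.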

Row | Structure (SMILES) | pIC50
1 | O=C(c1nc2cc(C(F)(F)F)ccc2[nH]1)N(c1cn[nH]c1)c1cccc(Cl)c1Cl [Compound 127, N-(2,3-dichlorophenyl)-N-(1H-pyrazol-4-yl)-5-(trifluoromethyl)-1H-benzo[d]imidazole-2-carboxamide] | ≥ 7.00
2 | CC(C)(C)c1ccc2[nH]c(C(=O)N(CC3(F)COC3)c3[nH]c(=O)ccc3Cl)nc2c1 [Compound 221, 5-(tert-butyl)-N-(3-chloro-6-oxo-1,6-dihydropyridin-2-yl)-N-((3-fluorooxetan-3-yl)methyl)-1H-benzo[d]imidazole-2-carboxamide] | ≥ 7.00
3 | CC(C)(C#N)c1ccc2[nH]c(C(=O)N(CC(F)(F)CO)c3ccc(F)c(F)c3Cl)nc2c1 [Compound 208] | ≥ 7.00
4 | CN(C(=O)c1nc2c(C3COC3)cccc2[nH]1)C1CCCC1 [Compound 113, N-cyclopentyl-N-methyl-4-(oxetan-3-yl)-1H-benzo[d]imidazole-2-carboxamide] | ≤ 6.00
5 | Cc1ccc2[nH]c(C(=O)N(C)C3CCNCC3)c(CNc3ccccn3)c2c1 [Compound 84, N,5-dimethyl-N-(piperidin-4-yl)-3-((pyridin-2-ylamino)methyl)-1H-indole-2-carboxamide] | ≤ 6.00
6 | Cc1ccc(Cl)c(N(C)C(=O)c2nc3cc(C(F)(F)F)ccc3[nH]2)c1Cl [Compound 152, N-(2,6-dichloro-3-methylphenyl)-N-methyl-5-(trifluoromethyl)-1H-benzo[d]imidazole-2-carboxamide] | ≥ 7.00
7 | O=C(c1nc2cc(C(F)(F)F)ccc2[nH]1)N(c1cccc(F)c1Cl)C1CCS(=O)(=O)C1 (racemic) [Compound 228, N-(2-chloro-3-fluorophenyl)-N-(1,1-dioxidotetrahydrothiophen-3-yl)-5-(trifluoromethyl)-1H-benzo[d]imidazole-2-carboxamide] | ≥ 7.00
8 | CC1CCC(C)C1N(CCO)C(=O)c1nc2cc(C(F)(F)F)ccc2[nH]1 (stereo not drawn) [Compound 102, N-(2,5-dimethylcyclopentyl)-N-(2-hydroxyethyl)-5-(trifluoromethyl)-1H-benzo[d]imidazole-2-carboxamide] | ≥ 7.00
9 | CC(C)c1ccc2[nH]c(C(=O)N(C)C3CCCC3)c(CO)c2c1 [Compound 27, N-cyclopenty1-3-(hydroxymethyl)-5-isopropyl-N-methyl-1H-indole-2-carboxamide] | 6.30 to 7.00
10 | CN(C(=O)c1[nH]ncc1CO)C1CCCC1 [Compound 33, N-cyclopentyl-4-(hydroxymethyl)-N-methyl-1H-pyrazole-5-carboxamide] | ≤ 6.00
11 | Cc1ccc2[nH]c(C(=O)N(C)c3ccccc3C#N)c(CO)c2c1 [Compound 7, N-(2-cyanophenyl)-3-(hydroxymethyl)-N,5-dimethyl-1H-indole-2-carboxamide] | ≤ 6.00
12 | Cc1ccc2[nH]c(C(=O)N(C)C3CCCC3)c(CNc3ccccn3)c2c1 [Compound 82, N-cyclopentyl-N,5-dimethyl-3-((pyridin-2-ylamino)methyl)-1H-indole-2-carboxamide] | 6.30 to 7.00
13 | CC(C)c1c[nH]c(C(=O)N(C)C2CCCC2)n1 [Compound 57, N-cyclopentyl-4-isopropyl-N-methyl-1H-imidazole-2-carboxamide] | ≤ 6.00
14 | Cc1ccc2[nH]c(C(=O)N(C)C3CCCC3)c(CC(N)=O)c2c1 [Compound 16, 3-(2-amino-2-oxoethyl)-N-cyclopentyl-N,5-dimethyl-1H-indole-2-carboxamide] | 6.00 to 6.30
15 | Cc1ccc2c(CO)c(C(=O)N(C)C3CCCC3)[nH]c2c1 [Compound 17, N-cyclopentyl-3-(hydroxymethyl)-N,6-dimethyl-1H-indole-2-carboxamide] | ≤ 6.00
16 | O=C(c1nc2cc(C(F)(F)F)cc(F)c2[nH]1)N(CC(F)(F)CO)c1cccc(F)c1Cl [Compound 211] | ≥ 7.00
17 | COc1ccc(Cl)c(N(CC(F)(F)CO)C(=O)c2nc3cc(C(F)(F)F)ccc3[nH]2)n1 [Compound 207, N-(3-chloro-6-methoxypyridin-2-yI)-N-(2,2-difluoro-3-hydroxypropyl)-5-(trifluoromethyl)-1H-benzo[d]imidazole-2-carboxamide] | 6.30 to 7.00
18 | Cc1ccc2[nH]c(C(=O)N(C)c3ccc(Cl)cc3)c(CO)c2c1 [Compound 25, N-(4-chlorophenyl)-3-(hydroxymethyl)-N,5-dimethyl-1H-indole-2-carboxamide] | ≤ 6.00
19 | Cc1ccc2[nH]c(C(=O)N(C)C3CCCC3)c(C#N)c2c1 [Compound 70, 3-cyano-N-cyclopentyl-N,5-dimethyl-1H-indole-2-carboxamide] | 6.30 to 7.00
20 | CN(C(=O)c1nc2c(C3CC3)cccc2[nH]1)C1CCCC1 [Compound 93, N-cyclopentyl-4-cyclopropyl-N-methyl-1H-benzo[d]imidazole-2-carboxamide] | 6.00 to 6.30
21 | Cn1nc(N(CCO)C(=O)c2nc3cc(C(F)(F)F)ccc3[nH]2)c(Cl)c1Cl [Compound 110, N-(4,5-dichloro-1-methyl-1H-pyrazol-3-yl)-N-(2-hydroxyethyl)-5-(trifluoromethyl)-1H-benzo[d]imidazole-2-carboxamide] | ≥ 7.00
22 | Cc1ccc2[nH]c(C(=O)N(C)C3CCCC3)c(CNc3nccs3)c2c1 [Compound 76, N-cyclopentyl-N,5-dimethyl-3-((thiazol-2-ylamino)methyl)-1H-indole-2-carboxamide] | 6.30 to 7.00

Next, values leading:

Row | pIC50 | Structure (SMILES)
23 | ≥ 7.00 | O=C(c1nc2cc(C(F)(F)F)ccc2[nH]1)N(CCOC1COC1)c1cccc(Cl)c1Cl [Compound 178, N-(2,3-dichlorophenyl)-N-(2-(oxetan-3-yloxy)ethyl)-5-(trifluoromethyl)-1H-benzo[d]imidazole-2-carboxamide]
24 | ≥ 7.00 | O=C(c1nc2cc(C(F)(F)F)ccc2[nH]1)N(CCO)c1cccc(Cl)c1Cl [Compound 103, N-(2,3-dichlorophenyl)-(2-hydroxyethyl)-5-(trifluoromethyl)-1H-benzo[d]imidazole-2-carboxamide]
25 | 6.00 to 6.30 | O=C1CCCN1CCN(C(=O)c1nc2ccc(C(F)(F)F)cc2[nH]1)c1cccc(Cl)c1Cl [Compound 165, N-(2,3-dichlorophenyl)-N-(2-(2-oxopyrrolidin-1-yl)ethyl)-6-(trifluoromethyl)-1H-benzo[d]imidazole-2-carboxamide]
26 | 6.30 to 7.00 | CNCCN(C(=O)c1nc2cc(C(F)(F)F)ccc2[nH]1)c1cccc(Cl)c1Cl [Compound 121, N-(2,3-dichlorophenyl)-N-(2-(methylamino)ethyl)-5-(trifluoromethyl)-1H-benzo[d]imidazole-2-carboxamide]
27 | ≥ 7.00 | COCC1(CN(C(=O)c2nc3cc(C(F)(F)F)ccc3[nH]2)c2cccc(Cl)c2Cl)COC1 [Compound 200]
28 | ≥ 7.00 | CC1(c2ccc3[nH]c(C(=O)N(CCO)c4cccc(Cl)c4Cl)nc3c2)COC1 [Compound 195]
29 | ≤ 6.00 | Cc1cn[nH]c1-c1ccc2[nH]c(C(=O)N(CC3COC3)c3cccc(Cl)c3Cl)nc2c1 [Compound 124]
30 | ≥ 7.00 | C[S+]([O-])CCCN(C(=O)c1nc2cc(C(F)(F)F)ccc2[nH]1)c1cccc(F)c1Cl (racemic) [Compound 230, N-(2-chloro-3-fluorophenyl)-N-(3-(methylsulfinyl)propyl)-5-(trifluoromethyl)-1H-benzo[d]imidazole-2-carboxamide]
31 | ≥ 7.00 | CC(=O)NCCN(C(=O)c1nc2cc(C(F)(F)F)ccc2[nH]1)c1cccc(Cl)c1Cl [Compound 146, N-(2-acctamidoethyl)-N-(2,3-dichlorophenyl)-5-(trifluoromethyl)-1H-benzo[d]imidazole-2-carboxamide]
32 | ≥ 7.00 | O=C(c1nc2cc(-c3cscn3)ccc2[nH]1)N(CCO)c1cccc(Cl)c1Cl [Compound 161]
33 | ≥ 7.00 | Cc1c(F)cccc1N(CCO)C(=O)c1nc2cc(C(F)(F)F)ccc2[nH]1 [Compound 158, N-(3-fluoro-2-methylphenyl)-N-(2-hydroxyethyl)-5-(trifluoromethyl)-1H-benzo[d]imidazole-2-carboxamide]
34 | ≤ 6.00 | Cc1ccc2[nH]c(C(=O)N(CCO)c3cccc(Cl)c3Cl)nc2c1 [Compound 50, N-(2,3-dichlorophenyl)-N-(2-hydroxyethyl)-5-methyl-1H-benzo[d]imidazole-2-carboxamide]
35 | ≥ 7.00 | O=C(c1nc2cc(C(F)(F)F)ccc2[nH]1)N(CCN1CC(O)C1)c1cccc(Cl)c1Cl [Compound 179, N-(2,3-dichlorophenyl)-N-(2-(3-hydroxyazetidin-1-yl)ethyl)-5-(trifluoromethyl)-1H-benzo[d]imidazole-2-carboxamide]
36 | ≥ 7.00 | O=C(c1nc2cc(C(F)(F)F)ccc2[nH]1)N(CCO)c1ccc(F)c(F)c1Cl [Compound 203, N-(2-chloro-3,4-difluorophenyl)-N-(2-hydroxyethyl)-5-(trifluoromethyl)-1H-benzo[d]imidazole-2-carboxamide]
